Results published in patent publication US9896440B2, “Aryl substituted heterocyclyl sulfones” (GRÜNENTHAL GMBH, priority 2014, dated 2018).

What follows are compounds tested against T1, Human CaV2.2 channels (Homo sapiens, UniProt Q00975) (assay: Fluorescence assay for CaV2.2 channels using potassium depolarization to induce channel opening (FLIPR, Fluo 4)). Details: 3 μM test compound, 30 mM KCl assay buffer (inactivated channel state), HEK293 cells.
T1 construct: expressed in transfected cells; Kir2.3 also stably co-expressed
Format: cell-based
Method in brief: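 HEK293 cells stably co-expressing human CaV2.2 with α2δ and β subunits plus Kir2.3, Fluo-4 loaded; compounds preincubated 15 min at 25 °C in 1 mM or 30 mM KCl buffer (inactivated state), pH 7.4. Depolarized by KCl addition; baseline-normalized peak fluorescence (ex 480/em 535 nm) gave inhibition.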

T1 sequence (Q00975 whole entry): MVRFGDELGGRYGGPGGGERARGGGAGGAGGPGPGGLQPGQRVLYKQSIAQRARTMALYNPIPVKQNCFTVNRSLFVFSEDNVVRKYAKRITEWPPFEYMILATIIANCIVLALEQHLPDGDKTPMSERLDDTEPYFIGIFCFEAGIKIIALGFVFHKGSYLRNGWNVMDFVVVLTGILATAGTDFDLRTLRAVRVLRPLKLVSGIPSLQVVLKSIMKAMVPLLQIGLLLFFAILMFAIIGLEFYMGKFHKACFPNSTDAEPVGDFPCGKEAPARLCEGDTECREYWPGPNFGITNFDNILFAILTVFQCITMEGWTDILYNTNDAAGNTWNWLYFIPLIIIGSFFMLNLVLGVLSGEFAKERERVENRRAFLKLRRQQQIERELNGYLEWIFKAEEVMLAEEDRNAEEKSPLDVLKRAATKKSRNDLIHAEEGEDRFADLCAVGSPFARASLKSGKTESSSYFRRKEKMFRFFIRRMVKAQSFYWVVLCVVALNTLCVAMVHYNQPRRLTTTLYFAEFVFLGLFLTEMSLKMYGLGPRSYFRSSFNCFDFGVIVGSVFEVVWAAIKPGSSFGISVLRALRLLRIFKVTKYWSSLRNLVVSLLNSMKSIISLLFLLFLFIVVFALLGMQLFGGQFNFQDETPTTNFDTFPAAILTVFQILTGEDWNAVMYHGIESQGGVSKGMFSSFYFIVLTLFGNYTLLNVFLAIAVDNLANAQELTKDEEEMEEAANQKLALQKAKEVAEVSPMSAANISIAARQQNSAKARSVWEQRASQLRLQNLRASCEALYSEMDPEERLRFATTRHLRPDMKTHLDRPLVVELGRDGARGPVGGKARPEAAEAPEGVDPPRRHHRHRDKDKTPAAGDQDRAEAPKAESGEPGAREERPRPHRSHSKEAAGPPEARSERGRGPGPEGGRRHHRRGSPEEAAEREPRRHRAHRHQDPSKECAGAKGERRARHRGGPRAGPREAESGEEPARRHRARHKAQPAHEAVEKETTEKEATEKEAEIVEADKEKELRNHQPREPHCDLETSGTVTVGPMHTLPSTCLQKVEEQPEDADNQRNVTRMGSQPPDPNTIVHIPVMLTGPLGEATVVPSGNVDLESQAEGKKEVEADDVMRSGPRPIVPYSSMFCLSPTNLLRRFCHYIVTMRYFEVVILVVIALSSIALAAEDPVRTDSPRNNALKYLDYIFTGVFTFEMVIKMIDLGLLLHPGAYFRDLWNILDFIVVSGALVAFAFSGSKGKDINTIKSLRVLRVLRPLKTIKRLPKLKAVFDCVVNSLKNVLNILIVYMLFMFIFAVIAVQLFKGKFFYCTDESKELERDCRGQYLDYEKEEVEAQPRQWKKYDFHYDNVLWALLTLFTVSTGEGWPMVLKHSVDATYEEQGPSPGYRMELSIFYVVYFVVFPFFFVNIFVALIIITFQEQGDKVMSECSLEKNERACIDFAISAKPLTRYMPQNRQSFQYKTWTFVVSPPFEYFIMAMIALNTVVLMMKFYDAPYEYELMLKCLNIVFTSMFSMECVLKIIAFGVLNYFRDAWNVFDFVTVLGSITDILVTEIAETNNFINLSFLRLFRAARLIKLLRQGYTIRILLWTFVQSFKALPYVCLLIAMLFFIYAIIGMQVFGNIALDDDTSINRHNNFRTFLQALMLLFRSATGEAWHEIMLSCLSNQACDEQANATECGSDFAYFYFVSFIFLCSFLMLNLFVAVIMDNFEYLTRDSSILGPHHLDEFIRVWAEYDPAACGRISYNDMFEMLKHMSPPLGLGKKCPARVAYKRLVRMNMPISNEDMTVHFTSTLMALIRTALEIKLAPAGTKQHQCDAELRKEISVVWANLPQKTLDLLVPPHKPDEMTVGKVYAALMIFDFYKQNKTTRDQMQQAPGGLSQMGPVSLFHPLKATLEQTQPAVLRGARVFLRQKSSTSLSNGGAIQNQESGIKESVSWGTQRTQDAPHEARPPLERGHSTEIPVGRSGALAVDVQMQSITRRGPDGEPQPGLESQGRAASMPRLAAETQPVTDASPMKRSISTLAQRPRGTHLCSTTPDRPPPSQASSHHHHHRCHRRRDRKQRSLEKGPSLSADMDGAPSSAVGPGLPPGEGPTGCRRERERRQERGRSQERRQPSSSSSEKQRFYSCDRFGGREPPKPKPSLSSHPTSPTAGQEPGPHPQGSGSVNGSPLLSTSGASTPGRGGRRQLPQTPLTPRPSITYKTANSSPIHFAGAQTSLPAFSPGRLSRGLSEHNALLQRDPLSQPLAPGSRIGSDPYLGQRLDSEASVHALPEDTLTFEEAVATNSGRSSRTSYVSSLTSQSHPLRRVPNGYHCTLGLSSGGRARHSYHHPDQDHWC

Q: How did the “Activity Category: %-Inhib (CaV2.2) @3 μM @30 mM KCl” value (“Activity Category: %-Inhib” below) turn out when `C[S+]([O-])c1cc(Cl)ccc1C1CC(C)(S(=O)(=O)c2cccc(C(F)(F)F)c2)CCO1` (stereo not shown) [SC-289, 2-[4-Chloro-2-(methylsulfinyl)-phenyl]-4-methyl-4-[[3-(trifluoromethyl)phenyl]sulfonyl]-tetrahydro-pyran] was run?
A: C (%-Inhibition >40% up to ≦75%)

Q: `C[S+]([O-])c1cc(Cl)ccc1C1CC(C)(S(=O)(=O)c2cccc(C(F)(F)F)c2)CCO1` (stereo not shown) [SC-290, 2-[4-Chloro-2-(methylsulfinyl)-phenyl]-4-methyl-4-[[3-(trifluoromethyl)phenyl]sulfonyl]-tetrahydro-pyran] was tested. Which “Activity Category: %-Inhib” value did it give?
A: B (%-Inhibition >75% up to ≦95%)

Q: For `C[S+]([O-])c1cc(Cl)ccc1C1CC(C)(S(=O)(=O)c2cccc(C(F)(F)F)c2)CCO1` (stereo not shown) [SC-291, 2-[4-Chloro-2-(methylsulfinyl)-phenyl]-4-methyl-4-[[3-(trifluoromethyl)phenyl]sulfonyl]-tetrahydro-pyran], which “Activity Category: %-Inhib” value is on record?
A: A (%-Inhibition >95%)

Q: How did the “Activity Category: %-Inhib” value turn out when `CC1(S(=O)(=O)c2cccc(C(F)(F)F)c2)CCOC(c2cc(F)cc(S(C)(=O)=O)c2)C1` (stereo not shown) [SC-297, 2-(3-Fluoro-5-methylsulfonyl-phenyl)-4-methyl-4-[[3-(trifluoromethyl)phenyl]sulfonyl]-tetrahydro-pyran] was run?
A: A (%-Inhibition >95%)

Q: `CC1(C)CC(C)(S(=O)(=O)c2cccc(C(F)(F)F)c2)CC(c2ccc(Cl)cc2)O1` (stereo not shown) [SC-301, 6-(4-Chlorophenyl)-2,2,4-trimethyl-4-[[3-(trifluoromethyl)phenyl]sulfonyl]-tetrahydro-pyran] was tested. Which “Activity Category: %-Inhib” value did it give?
A: B (%-Inhibition >75% up to ≦95%)

Q: How did the “Activity Category: %-Inhib” value turn out when `CC1(S(=O)(=O)c2cc(F)cc(C(F)(F)F)c2)CCOC(c2ccc(Cl)cc2)C1` (stereo not shown) [SC-304, 2-(4-Chlorophenyl)-4-[[3-fluoro-5-(trifluoromethyl)-phenyl]sulfonyl]-4-methyl-tetrahydro-pyran] was run?
A: A (%-Inhibition >95%)

Same assay, conditions: HEK293, 3 μM test compound, 30 mM KCl assay buffer (inactivated channel state), HEK293 cells; read-out: Activity Category: %-Inhib (CaV2.2) @3 μM @30 mM KCl

Q: How did the inhibition at 3 µM turn out when `CC1(S(=O)(=O)c2cccc(C(F)(F)F)n2)CCOC(c2ccc(S(C)(=O)=O)cc2)C1` (stereo not shown) [SC-293, 2-[[4-Methyl-2-(4-methylsulfonyl-phenyl)-tetrahydro-pyran-4-yl]sulfonyl]-6-(trifluoromethyl)-pyridine] was run?
A: 40 to 75%

Q: How did the inhibition at 3 µM turn out when `CC1(S(=O)(=O)c2cccc(C(F)(F)F)c2)CCOC(c2cc(S(C)(=O)=O)ccc2F)C1` (stereo not shown) [SC-294, 2-(2-Fluoro-5-methylsulfonyl-phenyl)-4-methyl-4-[[3-(trifluoromethyl)phenyl]sulfonyl]-tetrahydro-pyran] was run?
A: 75 to 95%

Q: Which inhibition at 3 µM does the source give for `CC1(S(=O)(=O)c2cccc(C(F)(F)F)c2)CCOC(c2cc(F)cc(S(C)(=O)=O)c2)C1` (stereo not shown) [SC-296, 2-(3-Fluoro-5-methylsulfonyl-phenyl)-4-methyl-4-[[3-(trifluoromethyl)phenyl]sulfonyl]-tetrahydro-pyran] here?
A: 75 to 95%

Q: With `CC1(C)CC(C)(S(=O)(=O)c2cccc(C(F)(F)F)c2)CC(c2ccc(Cl)cc2)O1` (stereo not shown) [SC-300, 6-(4-Chlorophenyl)-2,2,4-trimethyl-4-[[3-(trifluoromethyl)phenyl]sulfonyl]-tetrahydro-pyran] as the compound, how does the inhibition at 3 µM read?
A: > 95%

Q: `CC1(S(=O)(=O)c2cc(F)cc(C(F)(F)F)c2)CCOC(c2ccc(Cl)cc2)C1` (stereo not shown) [SC-303, 2-(4-Chlorophenyl)-4-[[3-fluoro-5-(trifluoromethyl)-phenyl]sulfonyl]-4-methyl-tetrahydro-pyran] was tested. Which inhibition at 3 µM did it give?
A: 75 to 95%

Q: With `CCC1(S(=O)(=O)c2cccc(C(F)(F)F)c2)CCOC(C2CC2)C1` (stereo not shown) [SC-306, 2-Cyclopropyl-4-ethyl-4-[[3-(trifluoromethyl)phenyl]sulfonyl]-tetrahydro-pyran] as the compound, how does the inhibition at 3 µM read?
A: 40 to 75%

Q: With `CC1(S(=O)(=O)c2cccc(C(F)(F)F)c2)CCOC(c2ccc(Cl)cc2)C1` (stereo not shown) [SC-310, 2-(4-Chlorophenyl)-4-methyl-4-[[3-(trifluoromethyl)phenyl]sulfonyl]-tetrahydro-pyran] as the compound, how does the inhibition at 3 µM read?
A: > 95%
